Source: patent publication US10654895B2, “Polypeptide, DNA molecule encoding the polypeptide, vector, preparation method and use” (WUHAN MORE BIOTECHNOLOGY CO., LTD., priority 2013, dated 2020)
Like-named read-outs stand apart in the source and are kept apart here. No end group written: not given here.

Legend:
[1] = system: Escherichia coli (E. coli) ATCC25922; details: >25 means greater than or equal to 50 μg/mL
[2] = system: Staphylococcus aureus (RA) ATCC25923; details: for MIC: Staphylococcus aureus (RA) ATCC25923, >25 means greater than or equal to 50 μg/mL; for inhibitory effect / antiseptic activity in words: against Staphylococcus aureus (RA) ATCC25923 and/or Escherichia coli ATCC25922
[3] = system: Methicillin-resistant Staphylococcus aureus (MRSA); details: Methicillin-resistant Staphylococcus aureus (Table 8)
Pseudomonas aeruginosa = details: Pseudomonas aeruginosa, strain not specified (Table 8)
[4] = standard Staphylococcus aureus (Table 2)
[5] = standard Escherichia coli (Table 2)
[6] = Staphylococcus aureus (methicillin-sensitive), strain not specified (Table 8)
[7] = Escherichia coli, strain not specified (Table 8)

Row | Substance | MIC [1] [µg/mL] | MIC [2] [µg/mL] | Minimum inhibitory concentration MIC (Staphylococcus aureus; [4]) [µg/mL] | Minimum inhibitory concentration MIC (Escherichia coli; [5]) [µg/mL] | further results
1 | FIRRLRIF [Ctryamp polypeptide mutant 13, FIRRLRIF] | >25 | >25 | – | – | –
2 | FIHIAHLLRIF [Ctryamp-5, FIHIAHLLRIF] | – | – | 12.5 | 6.25 | –
3 | FIKRIARLLRKIF [BmKAMP1-M, reference compound] | – | – | – | – | Minimum inhibitory concentration MIC [3]: 6.25 µg/mL; Minimum inhibitory concentration MIC (Staphylococcus aureus; [6]): 12.5 µg/mL; Minimum inhibitory concentration MIC (Escherichia coli; [7]): 12.5 µg/mL; Minimum inhibitory concentration MIC (Pseudomonas aeruginosa): 50 µg/mL
4 | FIHIARLLHIF [Ctryamp-6, FIHIARLLHIF] | – | – | 6.25 | 6.25 | –
5 | FFIRIARLLRIF [Ctryamp polypeptide mutant 21, FFIRIARLLRIF] | 25 | 12.5 | – | – | –
6 | Ac-FIRIARLLRIF [Ctryamp polypeptide mutant 32, Ac-FIRIARLLRIF] | 25 | 6.25 | – | – | inhibitory effect / antiseptic activity in words [2]: still have the antiseptic activity
7 | FIRIAKLLHIF [Ctryamp-8, FIRIAKLLHIF] | – | – | 6.25 | 12.5 | –
8 | FIKIAKLLRIF [Ctryamp-1, FIKIAKLLRIF] | – | – | 6.25 | 6.25 | –
9 | FIHIAKLLRIF [Ctryamp-7, FIHIAKLLRIF] | – | – | 6.25 | 12.5 | –
10 | FIRIARLLEIF [Ctryamp polypeptide mutant 1, FIRIARLLEIF] | >25 | >25 | – | – | inhibitory effect / antiseptic activity in words [2]: no antiseptic activity
11 | FIKRIARLLRIF [Ctryamp polypeptide mutant 20, FIKRIARLLRIF] | 6.25 | 6.25 | – | – | –
12 | RIFFIRIARLLRIF [Ctryamp polypeptide mutant 23, RIFFIRIARLLRIF] | 12.5 | 12.5 | – | – | –
13 | IFFIRIARLLRIF [Ctryamp polypeptide mutant 22, IFFIRIARLLRIF] | >25 | 12.5 | – | – | –
14 | FIKIAKLLKIF [Ctryamp-4, FIKIAKLLKIF] | 12.5 | 25 | 12.5 | 6.25 | –
15 | IARLLRIFFIRIARLLRIF [Ctryamp polypeptide mutant 28, IARLLRIFFIRIARLLRIF] | >25 | >25 | – | – | –
16 | FIRIARLLIF [Ctryamp polypeptide mutant 11, FIRIARLLIF] | >25 | >25 | – | – | –
17 | FIRIAKLLKIF [Ctryamp-3, FIRIAKLLKIF] | 12.5 | 12.5 | 6.25 | 12.5 | –
18 | FIRIADLLRIF [Ctryamp polypeptide mutant 2, FIRIADLLRIF] | >25 | 25 | – | – | –
19 | RLLRIF [Ctryamp polypeptide mutant 15, RLLRIF] | >25 | >25 | – | – | –
20 | FIHIARLLRIF [Ctryamp-R3H, FIHIARLLRIF] | – | – | 6.25 | 6.25 | –
21 | FIRIAKLLRIF [Ctryamp-R5K, FIRIAKLLRIF] | – | – | 6.25 | 6.25 | –
22 | FIGAIARLLSKIF [BmKAMP1, reference compound] | – | – | – | – | Minimum inhibitory concentration MIC [3]: 12.5 µg/mL; Minimum inhibitory concentration MIC (Staphylococcus aureus; [6]): 3.13 µg/mL; Minimum inhibitory concentration MIC (Escherichia coli; [7]): >100 µg/mL; Minimum inhibitory concentration MIC (Pseudomonas aeruginosa): >100 µg/mL
23 | FIKIARLLKIF [Ctryamp-2, FIKIARLLKIF] | 12.5 | 12.5 | 12.5 | 6.25 | –

Row | Substance | MIC [1] [µg/mL] | MIC [2] [µg/mL] | Minimum inhibitory concentration MIC (Staphylococcus aureus; [4]) [µg/mL] | Minimum inhibitory concentration MIC (Escherichia coli; [5]) [µg/mL] | further results
24 | RIARLLRIFFIRIARLLRIF [Ctryamp polypeptide mutant 29] | >25 | >25 | – | – | –
25 | FIRLRIF [Ctryamp polypeptide mutant 14, FIRLRIF] | >25 | >25 | – | – | –
26 | FIRRLLRIF [Ctryamp polypeptide mutant 12, FIRRLLRIF] | 25 | 12.5 | – | – | –
27 | FIKIARLLRIF [Ctryamp-R3K, FIKIARLLRIF] | – | – | 6.25 | 12.25 | –
28 | FIRIARLRIF [Ctryamp polypeptide mutant 8, FIRIARLRIF] | 12.5 | 25 | – | – | –
29 | FIRKIARLLRIF [Ctryamp polypeptide mutant 19, FIRKIARLLRIF] | 6.25 | 6.25 | – | – | –
30 | FRIARLLRIF [Ctryamp polypeptide mutant 9, FRIARLLRIF] | 6.25 | 12.5 | – | – | –
31 | FIRIARLLKRIF [Ctryamp polypeptide mutant 18, FIRIARLLKRIF] | 12.5 | 6.25 | – | – | –
32 | FIGAIARLLRKIF [ABP-W1, reference compound] | – | – | – | – | Minimum inhibitory concentration MIC [3]: 8 µg/mL; Minimum inhibitory concentration MIC (Staphylococcus aureus; [6]): 3.13 µg/mL; Minimum inhibitory concentration MIC (Escherichia coli; [7]): >100 µg/mL; Minimum inhibitory concentration MIC (Pseudomonas aeruginosa): >100 µg/mL
33 | FIRARLLRIF [Ctryamp polypeptide mutant 10, FIRARLLRIF] | >25 | >25 | – | – | –
34 | GFIRIARLLRIF [Ctryamp polypeptide mutant 16, GFIRIARLLRIF] | 6.25 | 6.25 | – | – | –
35 | LLRIFFIRIARLLRIF [Ctryamp polypeptide mutant 25, LLRIFFIRIARLLRIF] | >25 | 25 | – | – | –
36 | RLLRIFFIRIARLLRIF [Ctryamp polypeptide mutant 26, RLLRIFFIRIARLLRIF] | >25 | >25 | – | – | –
37 | FIRIARLLRKIF [Ctryamp polypeptide mutant 17, FIRIARLLRKIF] | 12.5 | 6.25 | – | – | –
38 | FIRIARLLHIF [Ctryamp-R9H, FIRIARLLHIF] | – | – | 6.25 | 6.25 | –
39 | FIRIARLLRIFFIRIARLLRIF [Ctryamp polypeptide mutant 31] | >25 | >25 | – | – | –
40 | IRIARLLRIFFIRIARLLRIF [Ctryamp polypeptide mutant 30] | >25 | >25 | – | – | –
41 | LRIFFIRIARLLRIF [Ctryamp polypeptide mutant 24, LRIFFIRIARLLRIF] | >25 | 25 | – | – | –
42 | FIKIGKLLKIF [Ctryamp polypeptide mutant 6, FIKIGKLLKIF] | 12.5 | 25 | – | – | –
43 | FIRIAHLLRIF [Ctryamp-R5H, FIRIAHLLRIF] | – | – | 6.25 | 12.5 | –
44 | FIRIARLLKIF [Ctryamp-R9K, FIRIARLLKIF] | – | – | 6.25 | 12.5 | –
45 | FIKIGKILKIF [Ctryamp polypeptide mutant 7, FIKIGKILKIF] | 12.5 | >25 | – | – | –
46 | ARLLRIFFIRIARLLRIF [Ctryamp polypeptide mutant 27, ARLLRIFFIRIARLLRIF] | >25 | >25 | – | – | –
